In ChEMBL document CHEMBL5143657, “Discovery, Topo I inhibitory activity and mechanism evaluation of two novel cytisine-type alkaloid dimers from the seeds of Sophora alopecuroides L” (Bioorg Med Chem, 2022):
Calls of active or inactive are those of the source. The rule behind the calls is not given here.

Experiments:
[1] = molecular target: T1, DNA topoisomerase 1 (Homo sapiens) (UniProt P11387); test: Inhibition of topoisomerase 1 (unknown origin) assessed as reduction in relaxation of supercoiled DNA at 1 mM using pBR322 plasmid DNA as substrate measured after 30 mins by gel electrophoresis relative to control
T1 sequence (whole entry): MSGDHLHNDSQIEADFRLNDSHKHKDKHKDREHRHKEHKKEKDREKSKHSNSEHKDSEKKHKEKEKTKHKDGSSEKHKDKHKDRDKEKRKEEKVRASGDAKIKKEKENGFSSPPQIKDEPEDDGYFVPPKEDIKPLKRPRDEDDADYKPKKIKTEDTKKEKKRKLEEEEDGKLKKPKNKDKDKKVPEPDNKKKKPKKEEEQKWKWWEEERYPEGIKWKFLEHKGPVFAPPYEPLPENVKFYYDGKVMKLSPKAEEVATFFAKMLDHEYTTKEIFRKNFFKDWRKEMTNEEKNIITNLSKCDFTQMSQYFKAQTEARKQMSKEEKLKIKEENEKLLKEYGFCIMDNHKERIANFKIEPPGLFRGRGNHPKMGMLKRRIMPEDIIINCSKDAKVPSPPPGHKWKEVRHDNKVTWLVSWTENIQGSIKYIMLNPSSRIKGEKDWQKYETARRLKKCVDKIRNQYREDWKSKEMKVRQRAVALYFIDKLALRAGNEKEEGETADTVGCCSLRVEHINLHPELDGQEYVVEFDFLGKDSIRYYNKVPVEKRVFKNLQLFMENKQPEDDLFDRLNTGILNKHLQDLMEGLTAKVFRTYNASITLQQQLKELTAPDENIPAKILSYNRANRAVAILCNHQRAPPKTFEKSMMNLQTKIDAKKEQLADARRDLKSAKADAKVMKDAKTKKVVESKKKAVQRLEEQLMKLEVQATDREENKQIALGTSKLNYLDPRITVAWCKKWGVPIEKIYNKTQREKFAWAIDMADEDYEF

[2] = molecular target: T1, DNA topoisomerase 1 (Homo sapiens); test: Poison activity at topoisomerase 1 (unknown origin) assessed as stabilization of enzyme-DNA cleavage complex by measuring increase in nicked DNA formation at 1 mM using pBR322 DNA as substrate after 30 mins by agarose gel electrophoresis
[3] = molecular target: T1, DNA topoisomerase 1 (Homo sapiens); test: Inhibition of topoisomerase 1 (unknown origin) assessed as DNA intercalation at 1 mM using pBR322 DNA as substrate measured after 30 mins by gel electrophoresis relative to control

Row | SMILES | inhibition [1] [%] | Activity [2] | inhibition [3]
1 | O=C1CCC[C@H]2[C@H]3CCCN[C@@H]3[C@@H](CCCN3C[C@H]4C[C@H](C3)c3cccc(=O)n3C4)CN12 | 58.6 | Active | 
2 | O=C1CCC[C@H]2[C@@H]3CCCN[C@H]3[C@H](CCCN3C[C@H]4C[C@H](C3)c3cccc(=O)n3C4)CN12 | 82.3 | Active | 
3 | CC[n+]1c(-c2ccccc2)c2cc(N)ccc2c2ccc(N)cc21 |  |  | Active
